Several values for one entry are separate records, joined by “and”; a condition that tells them apart may be missing. Equal values may be shown once.

For series [1] the following is noted: 60 min, previous study, cited from earlier work. As to the method:
This study has several limitations. The limit of quantification (100 pg/ml) and between subject variability for d5OT precluded comparisons of CSF concentrations of d5OT across routes of administration (IN vs. IV), or across time (60 vs. 120 min), for a given route. […] For example, mean plasma concentration of d5OT at 60 min in the IV condition was 1992 ± 476 pg/ml in the present study and 3306 ± 1162 pg/ml in the previous st ...

Series [2] in a line: CSF concentration of d5OT by LC-MS/MS after IN or IV d5OT. It is filed as in vivo, rhesus macaques (Macaca mulatta). Here is the method: (§1) The six monkeys were dosed once a week, for 4 consecutive weeks, with each DOSE–ROUTE condition of d5OT (40 IU IN, 40 IU IV, 80 IU IN, or 80 IU IV). Each DOSE–ROUTE condition was assigned using a Latin square randomization (Table 4). Sessions were separated by at least 6 days. During each session, CSF (750 µl) and blood (5 ml) samples were drawn immediately prior to (T = 0) and following (T = 60 and 120 min) each administration of d5OT.
(§2) Monkeys were divided into three groups, each with two monkeys; each group received the following in a terminal study at the 5th week: Group 1 (Monkeys ID# 1 and ID# 5) received 40 IU of d5OT IN, Group 2 received 80 IU of d5OT IN (Monkeys ID# 2 and ID# 4) and Group 3 received 80 IU of d5OT IV (Monkeys ID# 3 and ID# 6). Animals were perfused on average, 140 ± 7 (mean ± SD) min after d5OT administration (range = 135–149 min) (Table 4). Plasma and CSF were drawn just before administration of d5OT, at the midpoint between d5OT administration and perfusion (~60 min post-d5OT administration), and just before perfusion.
(§3) Chemicals: An unlabeled standard for d0OT and deuterated standard for d5OT were purchased from Sigma-Aldrich (St. Louis, MO); d10OT was purchased for use as an internal standard through a custom order from Cayman Chemical (Ann Arbor, MI). All other reagents were commercially available, and we purchased LC or MS grade chemicals when available. Plasma and CSF sample preparation for LC–MS/MS analysis. CSF and plasma samples were collected as described above. Using 15 ml polystyrene tubes, 1.0 ml of each standard, quality control (QC), or plasma sample was combined with 30 µl of internal standard mixture (34 ng/ml d10OT in 50:50 acetonitrile (ACN):water, v–v) and incubated for 20 min on ice. Volumes used for CSF samples ranged from 0.4 to 1.0 ml, depending on sample availability. CSF samples <1.0 ml were brought to a final volume of 1.0 ml using charcoal-stripped serum, prior to addition of internal standard. To each tube, 2 ml of ice-cold ACN was added, vortexed thoroughly, and centrifuged at 2500 × g for 10 min at 4 °C. The supernatants were transferred to new 13 mm × 100 mm polypropylene tubes and evaporated in a 37 °C water bath, under forced air, to a volume of <1 ml. We then added 5.5 ml of 0.2 M ammonium acetate (pH 3.0) in water, capped the tubes and mixed by inversion, before centrifugation at 2500 × g for 10 min at 4 °C.
Solid-phase extraction (SPE) columns (Strata-X-Drug B, 60 mg/6 ml, Phenomenex, Torrance, CA) were conditioned prior to use by adding 2 ml of methanol, followed by 2 ml of water, and 2 ml of 0.2 M ammonium acetate (pH 3.0) in water; each was allowed to flow through by gravity before the next was added. The supernatants from the previous step were then added to SPE columns (one supernatant per column) by pouring. Columns were washed with 2 ml ammonium acetate (pH 3.0) in water, followed by 2 ml water and 2 ml ACN, and dried for 5 min in a vacuum manifold (5 in Hg; Millipore, Burlington, MA). OT was eluted with 2 × 1 ml 0.2% ammonium hydroxide in methanol into 12 mm × 75 mm polypropylene tubes and evaporated to dryness under forced air in a 37 °C water bath. […] After a 15 min incubation at 4 °C, plates were filtered into microtiter plates (Shimadzu, Kyoto, Japan) using a positive pressure manifold (8 min at 5 psi, followed by 15 s at 15 psi; Biotage, Uppsala, Sweden), and analyzed. […]

For series [3] the following is noted: humans; 24 IU OT (not labelled) intranasally; 75 minutes post-administration; radioimmunoassay; ref Striepens et al., Sci Rep 2013; cited from earlier work. Here is the method: page 8: 4. It is surprising that no CSF d5 OT was detected at 60 or 120 minutes in CSF after IN administration. […] In our previous study (Lee et al., Mol Psychiatry 2018), after IN administration, CSF d5OT concentration at 60 minutes was quantified in 4 monkeys as follows: 11.28, 15.99, 67.65 and 221.62 pg/ml. In this previous study, the limit of quantification (LOQ) for d5OT was 10 pg/ml. The LOQ of d5OT in the present study was 100 pg/ml and the method dete ...

Series [4] in a line: CSF concentration of endogenous d0OT by LC-MS/MS. It is filed as in vivo, rhesus macaques (Macaca mulatta). Here is the method: as §1, §2
as §3, with “We then added 5.5 ml of 0.2 M ammonium acetate (pH 3.0) in water, capped the tubes and mixed by inversion, before centrifugation at 2500 × g for 10 min at 4 °C.” left out
Solid-phase extraction (SPE) columns (Strata-X-Drug B, 60 mg/6 ml, Phenomenex, Torrance, CA) were conditioned prior to use by adding 2 ml of methanol, followed by 2 ml of water, and 2 ml of 0.2 M ammonium acetate (pH 3.0) in water; each was allowed to flow through by gravity before the next was added. […] After a 15 min incubation at 4 °C, plates were filtered into microtiter plates (Shimadzu, Kyoto, Japan) using a positive pressure manifold (8 min at 5 psi, followed by 15 s at 15 psi; Biotage, Uppsala, Sweden), and analyzed. […]

As for `CC[C@H](C)[C@@H]1NC(=O)[C@H](Cc2ccc(O)cc2)NC(=O)[C@@H](N)CSSC[C@@H](C(=O)N2CCC[C@H]2C(=O)N[C@@H](CC(C)C)C(=O)NCC(N)=O)NC(=O)[C@H](CC(N)=O)NC(=O)[C@H](CCC(N)=O)NC1=O` [d5OT], the “Plasma d5OT” value in series [1] (80 IU IN condition) is 615 ± 474 pg/mL. Further, in series [1] (IV condition), the “Mean plasma concentration of d5OT” value is 3.306 ± 1.162 ng/mL. Further, the “d5OT in CSF” value in series [2] (120 min after IV administration (40 and 80 IU), LC-MS/MS, MDL 38 pg/ml) is recorded as “no d5OT detected”; in series [2] (after IN administration of either dose (40 or 80 IU), any timepoint, LC-MS/MS, MDL 38 pg/ml), “no d5OT detected”; in series [2] (just prior to necropsy, after 80 IU IV, single monkey, LOQ 100 pg/ml), “below the limit of quantification”; in series [2] (timepoint 60 min after 40 IU IV, N = 6, LC-MS/MS, LOQ 100 pg/ml, MDL 38 pg/ml), “detected”; in series [2] (timepoint 60 min after 80 IU IV, N = 6, LC-MS/MS, LOQ 100 pg/ml, MDL 38 pg/ml), “detected”.

In the case of `CC[C@H](C)[C@@H]1NC(=O)[C@H](Cc2ccc(O)cc2)NC(=O)[C@@H](N)CSSC[C@@H](C(=O)N2CCC[C@H]2C(=O)N[C@@H](CC(C)C)C(=O)NCC(N)=O)NC(=O)[C@H](CC(N)=O)NC(=O)[C@H](CCC(N)=O)NC1=O` [OT, oxytocin], the “CSF OT concentration” value in series [3] is listed as “approximately 30 pg/ml”. For the same compound, the “CSF concentrations of d0OT at necropsy” value in series [4] (40 IU IN condition, monkey #1) was “not quantified”; in series [4] (40 IU IN condition, one monkey), 12 pg/mL; in series [4] (80 IU IN condition, two monkeys, listed as d0OT), 16 pg/mL and 10 pg/mL; in series [4] (80 IU IV condition, two monkeys, listed as d0OT) it was 16 pg/mL and 14 pg/mL.

These data come from article PMC7270110, “Labeled oxytocin administered via the intranasal route reaches the brain in rhesus macaques” (Nature Communications, 2020).
